Series [1] has as its system HCT-116. Description: Downregulation of Sall4 mRNA level in human HCT-116 cells at 10 uM incubated for 24 hrs by qPCR analysis. In kind it is functional, cell-based. (Quantitative PCR measures a nucleic acid by following its amplification.)
The nature of series [2]: Metabolic stability in mouse liver microsomes assessed as intrinsic clearance per mg protein preincubated for 10 mins followed by NADP, glucose-6-phosphate and glucose-6-phosphate dehydrogenase addition and measured upto 60 mins by LC-MS/MS analysis. In kind it is ADME, Microsome. To be noted: time < 70 min, read-out: CLH. For orientation: Liver microsomes are a subcellular fraction often used to study metabolism.

Series [3] relates to SW480. Description: Inhibition of Wnt/beta-catenin signaling in human SW480 cells assessed as residual activity at IC50 concentration incubated for 12 hrs by Topflash/Fopflash Dual-Glo luciferase reporter assay. Particulars: dose 30.0 µM. In kind it is cell-based. Background: Reporter assays use an easily measured gene product as a stand-in for the process of interest.
In series [4] the test system is HCT-116. Description: Antitumor activity against human HCT-116 cells xenografted in BALB/c nu/nu mouse assessed as reduction in tumor volume at 25 mg/kg, ip administered every 2 days for 30 day. In kind it is functional, organism-based.
The nature of series [5]: Metabolic stability in mouse liver microsomes assessed as half life preincubated for 10 mins followed by NADP, glucose-6-phosphate and glucose-6-phosphate dehydrogenase addition and measured upto 60 mins by LC-MS/MS analysis. In kind it is ADME, Microsome. To be noted: time < 70 min.
Series [6] deals with HCT-116. In words: Downregulation of Fgf20 mRNA level in human HCT-116 cells at 10 uM incubated for 24 hrs by qPCR analysis. In kind it is functional, cell-based.
Series [7] has as its system HCT-116. In words: Inhibition of Wnt/beta-catenin signaling in human HCT-116 cells assessed as residual activity at IC50 concentration incubated for 12 hrs by Topflash/Fopflash Dual-Glo luciferase reporter assay. To be noted: dose 30.0 µM. In kind it is cell-based.
A short description of series [8]: Downregulation of c-Myc mRNA level in human HCT-116 cells at 10 uM incubated for 24 hrs in presence of 50 mM LiCl by qPCR analysis. In kind it is functional.
The target of series [9] is T1, Catenin beta-1 (Homo sapiens) (UniProt P35222).
T1 sequence (whole entry): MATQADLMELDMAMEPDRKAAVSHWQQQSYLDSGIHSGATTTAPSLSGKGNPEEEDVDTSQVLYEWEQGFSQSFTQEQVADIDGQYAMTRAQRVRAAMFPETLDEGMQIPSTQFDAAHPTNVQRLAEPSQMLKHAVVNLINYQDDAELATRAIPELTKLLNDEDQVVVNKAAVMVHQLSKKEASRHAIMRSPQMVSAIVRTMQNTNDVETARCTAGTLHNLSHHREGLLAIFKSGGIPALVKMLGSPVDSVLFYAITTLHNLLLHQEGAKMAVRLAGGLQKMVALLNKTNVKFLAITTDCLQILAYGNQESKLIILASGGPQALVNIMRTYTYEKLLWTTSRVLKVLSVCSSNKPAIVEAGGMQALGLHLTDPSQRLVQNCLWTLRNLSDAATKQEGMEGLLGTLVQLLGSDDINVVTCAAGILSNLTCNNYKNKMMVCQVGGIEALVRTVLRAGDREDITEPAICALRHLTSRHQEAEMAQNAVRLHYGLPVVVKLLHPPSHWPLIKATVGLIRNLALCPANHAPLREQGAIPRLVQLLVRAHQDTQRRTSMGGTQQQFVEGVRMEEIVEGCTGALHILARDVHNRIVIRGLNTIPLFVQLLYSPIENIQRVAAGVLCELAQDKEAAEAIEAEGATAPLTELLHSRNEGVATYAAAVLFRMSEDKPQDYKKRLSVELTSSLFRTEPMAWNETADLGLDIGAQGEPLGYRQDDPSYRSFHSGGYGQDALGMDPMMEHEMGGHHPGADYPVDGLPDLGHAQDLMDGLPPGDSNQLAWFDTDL
In words: Inhibition of beta-catenin in human HCT-116 cells transfected with luciferase based vectors incubated for 24 hrs in presence of LiCl. In kind it is cell-based. To be noted: dose 50-100 nM.

Series [10] has as its system HCT-116. In words: Downregulation of c-Myc mRNA level in human HCT-116 cells incubated for 24 hrs in presence of 50 mM LiCl by qPCR analysis. Particulars: dose 10-100 µM. In kind it is functional, cell-based.
Series [11] concerns SW480. Description: Inhibition of cell growth in human SW480 cells incubated for 48 to 72 hrs by XTT method. In kind it is functional, cell-based.
Series [12] concerns HCT-116. In words: Downregulation of beta-catenin protein level in human HCT-116 cells incubated for 24 hrs in presence of 50 mM LiCl by Western blotting analysis. In kind it is functional, cell-based. Particulars: dose 10-100 µM.
Series [13] in a line: Metabolic stability in human liver microsomes assessed as half life preincubated for 10 mins followed by NADP, glucose-6-phosphate and glucose-6-phosphate dehydrogenase addition and measured upto 60 mins by LC-MS/MS analysis. In kind it is ADME, Microsome. Particulars: time < 70 min.
Series [14] can be described thus: Metabolic stability in human liver microsomes assessed as intrinsic clearance per mg protein preincubated for 10 mins followed by NADP, glucose-6-phosphate and glucose-6-phosphate dehydrogenase addition and measured upto 60 mins by LC-MS/MS analysis. In kind it is ADME, Microsome. Particulars: time < 70 min, read-out: CLH.
In series [15] the target is T1, Catenin beta-1 (Homo sapiens). In words: Inhibition of beta-catenin in human HCT-116 cells transfected with luciferase based vectors at 1 to 10 nM incubated for 48 hrs in presence of LiCl. In kind it is cell-based. To be noted: dose 1-10 nM.
The subject of series [16] is HCT-116. In words: Antitumor activity against human HCT-116 cells xenografted in BALB/c nu/nu mouse assessed as reduction in tumor weight at 25 mg/kg, ip administered every 2 days for 30 day. In kind it is functional, organism-based.
Series [17] deals with HCT-116. Description: Antitumor activity against human HCT-116 cells xenografted in BALB/c nu/nu mouse assessed as reduction in nuclear Ki67 expression at 25 mg/kg, ip administered every 2 days for 30 day by […] based assay. In kind it is functional, organism-based.
In series [18] the test system is HCT-116. In words: Inhibition of cell growth in human HCT-116 cells incubated for 48 to 72 hrs by XTT method. In kind it is functional, cell-based.
In series [19] the test system is HCT-116. In words: Downregulation of c-Myc protein level in human HCT-116 cells incubated for 24 hrs in presence of 50 mM LiCl by Western blotting analysis. In kind it is functional, cell-based. To be noted: dose 10-100 µM.

This note sets out measurements from ChEMBL document CHEMBL6127121, “Development of N-(4-(1H-Imidazol-1-yl)phenyl)-4-chlorobenzenesulfonamide, a Novel Potent Inhibitor of β-Catenin with Enhanced Antitumor Activity and Metabolic Stability” (J Med Chem, 2024).

The source made the active and inactive calls. No cut-off for these calls is given here.

Regarding `O=S(=O)(Nc1ccc(-n2ccnc2)cc1)c1ccc(Cl)cc1`, the result in the series with HCT-116 [1], in the series with HCT-116 [4], in the series with HCT-116 [6], in the series with HCT-116 [16] and with HCT-116 [17] was Active. The microsomal CLint in [2] and in series [14] was below 3 µL/min/mg throughout. In addition, the Activity was 3.7% in the series with SW480 [3]; 2.5% with HCT-116 [7]; 50% in [8]; “Dose-Dependent Effect” in the series on HCT-116 [10]; “Dose-Dependent Effect” in the series with HCT-116 [12]; “Dose-Dependent Effect” in the series on HCT-116 [19]. Also, the half-life in series [5] and in [13] was above 8.33 h in each case. Also, the inhibition entry in series [9] is “Dose-Dependent Effect”. For the same compound, the half-maximal effective concentration (EC50) was found to be 2 µM in the series on SW480 [11] and 0.12 µM in the series on HCT-116 [18]. Also, in series [15], the inhibition entry is “Active”.

As usually defined, the half-life is the time in which the quantity being followed falls by half. In general, EC50 refers to the concentration at which the effect is half-maximal. A higher EC50 goes with a less potent agent.
